The text below walks through data of PMC7582876, “Antiproliferative Properties of a Few Auranofin-Related Gold(I) and Silver(I) Complexes in Leukemia Cells and their Interferences with the Ubiquitin Proteasome System” (Molecules, 2020).

For experiment [1], the target named is T1, bovine pancreatic α-chymotrypsin (Bos taurus, UniProt P00766).
T1 construct: from tissue; host or cells: bovine pancreas (from the enzyme's name only)
Description: Bovine pancreatic α-chymotrypsin inhibition screening. The note with it: over 10 min. It is filed as biochemical. As for the experimental part: 20S proteasome, isolated and purified from human erythrocytes, was obtained from a commercial source (Biomol GmbH, Hamburg, Germany), as well as the peptidic substrates (Bachem, Bubendorf, Switzerland) Suc-Leu-Leu-Val-Tyr-AMC, Boc-Leu-Arg-Arg-AMC and Cbz-Leu-Leu-Glu-AMC for ChT-L, T-L and PGPH (C-L) activity of the enzyme, respectively. The three distinct proteolytic activities of the 20S proteasome were measured by monitoring the hydrolysis of the substrates and detecting the fluorescence of the common product released, i.e., 7-amino-4-methyl coumarin (7-AMC), by means of an Infinite 200 PRO microplate reader (Tecan, Männedorf, Switzerland) at 30 °C with a 380-nm excitation filter and a 460-nm emission filter. All gold and silver complexes were tested against the three proteolytic activities of the 20S proteasome and against Cat-B, Cat-L and bovine pancreatic α-chymotrypsin at 10 µM concentrations over a period of 10 min using an equivalent amount of DMSO as a negative control. […]. The IC50 values were calculated with the program GraFit® using the two-parameter equation. More detailed experimental protocols for the assays against each proteolytic activity of the 20S proteasome, as well as against bovine pancreatic α-chymotrypsin, are already reported elsewhere (see also Supplementary Materials). Cat-B and Cat-L were purchased from Calbiochem, Darmstadt, Germany, and the related assays were performed as previously described. The employed fluorogenic substrate for both cysteine proteases was Cbz-Phe-Arg-AMC (80 µM for Cat-B; 5 µM for Cat-L).
Assay for Bovine Pancreatic α-Chymotrypsin Inhibition
The enzyme ([…]) was incubated at 20 °C with the test compound present at 10
µM (screening assay). The reaction buffer consisted of 50 mM Tris buffer pH 8.0
containing 100 mM NaCl, 5 mM EDTA and 7.5% DMSO. Product release from substrate
hydrolysis ([…] final concentration, Suc-Leu-Leu-Val-Tyr-AMC from Bachem) was
determined over a period of 10 min. […]

For experiment [2], the system named is human fibroblast cells (HDF). Details: method as in PMID 29057040. Particulars: previously assessed, ref [18], read-out: IC50, cell viability of healthy cells (HDF); cited from earlier work.
The test system of experiment [3] is human embryonic kidney cells (HEK293). Details: method as in PMID 29057040. The note with it: previously assessed, ref [18], read-out: IC50, cell viability of healthy cells (HEK293); cited from earlier work.

Regarding `CC[PH](CC)(CC)[Ag][Br]` [Ag(PEt3)Br], the “Bovine Pancreatic α-Chymotrypsin Inhibition (%) at 10 µM” value in experiment [1] is given as “n.i”. Still for that read-out and setting: the result for `CC[PH](CC)(CC)[Ag][Cl]` [Ag(PEt3)Cl] reads “n.i”; that for `CC[PH](CC)(CC)[Ag][I]` [Ag(PEt3)I], “n.i”; that for `CCP(CC)CC.[Br][Au]` [Au(PEt3)Br], “n.i”. `CCP(CC)CC.[Au+].[Cl-]` [Au(PEt3)Cl]: the IC50 in experiment [2] and in experiment [3] was greater than 5 µM each time. In addition, the “Bovine Pancreatic α-Chymotrypsin Inhibition (%) at 10 µM” value in experiment [1] is recorded as “n.i”. Regarding `CC[P](CC)(CC)[Au][I]` [Au(PEt3)I], the IC50 in experiment [2] and in experiment [3] was greater than 5 µM each time. In experiment [1], the “Bovine Pancreatic α-Chymotrypsin Inhibition (%) at 10 µM” value is “n.i”.

For `CCP(CC)CC.CCP(CC)CC.O=[N+]([O-])[O-].[Ag+]` [[Ag(PEt3)2]NO3], the “Bovine Pancreatic α-Chymotrypsin Inhibition (%) at 10 µM” value in experiment [1] is listed as “n.i”.

`CC(=O)OC[C@H]1O[C@@H]([S-])[C@H](OC(C)=O)[C@@H](OC(C)=O)[C@@H]1OC(C)=O.CCP(CC)CC.[Au+]` [auranofin, Auranofin]: the IC50 in experiment [2] and in experiment [3] was greater than 5 µM each time. In addition, the “Bovine Pancreatic α-Chymotrypsin Inhibition (%) at 10 µM” value in experiment [1] is “n.i. ^a”.
